US20140050668A1, “VISUALIZATION OF LIPID METABOLISM” (UNIVERSITAETSKLINIKUM HAMBURG-EPPENDORF, priority 2011, published 2014)
“Also recorded” adds a separate entry of the source.

How the values were obtained:
[1] = target: T1, LPL (Mus musculus, UniProt P11152); assay: Organ distribution of 59Fe-SPIO- and 3H-triolein-labeled TRL after pre-injection of THL or heparin; format: in vivo; details: cold FVB mice; for uptake of 3H-triolein into BAT / uptake of 59Fe-SPIO into BAT: pre-injected 1 min before radiolabeled TRL i.v., organs 15 min after injection
T1 construct: from tissue; host or cells: living wild-type FVB mice (in vivo; endothelium of BAT, heart and other lipid-consuming tissues)
T1 sequence (P11152 28-474): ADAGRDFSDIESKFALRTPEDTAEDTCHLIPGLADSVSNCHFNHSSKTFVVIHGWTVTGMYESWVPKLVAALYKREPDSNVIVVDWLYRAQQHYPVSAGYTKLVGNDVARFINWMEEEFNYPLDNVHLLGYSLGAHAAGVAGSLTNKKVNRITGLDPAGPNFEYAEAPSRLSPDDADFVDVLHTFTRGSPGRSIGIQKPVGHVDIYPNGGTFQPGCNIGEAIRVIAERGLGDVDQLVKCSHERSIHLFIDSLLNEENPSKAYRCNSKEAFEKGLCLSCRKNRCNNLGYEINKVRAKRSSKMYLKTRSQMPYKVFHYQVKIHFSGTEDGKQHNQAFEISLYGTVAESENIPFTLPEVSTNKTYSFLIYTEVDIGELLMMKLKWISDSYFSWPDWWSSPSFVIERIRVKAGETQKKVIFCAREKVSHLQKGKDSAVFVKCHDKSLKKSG
Method: (§1) Turnover studies and organ distribution. For turnover studies, anesthetized mice were tail vein injected with 200 μl radiolabeled TRL. Lipoprotein turnover was determined from 10 μl plasma 0.5, 1, 2, 5 and 15 min after injection. After 15 min, blood was removed by cardiac puncture, the right atrium was opened, and the carcass was perfused through the left ventricle with PBS containing 50 U mL^1 heparin. Then, organs were harvested and weighed. For measurement of radioactivity, organs were solubilized in Solvable (PerkinElmer, Boston, USA, 0.1 mL per 10 mg organ), 200 μL were counted in scintillation fluid and TRL uptake was calculated as c.p.m. per mg organ. Oral fat tolerance tests were performed by gavage of 100 μL olive oil with [9,10-^3H(N)]-triolein (370 KBq per mouse). To measure lipoprotein production triton WR-1339 (Tyloxapol from Sigma; 0.5 mg per g body weight as 10% solution in PBS) was injected into the tail vein. Plasma was collected at indicated time points. For the measurement of hepatic production 1(3)-^3H glycerol (125 KBq per mouse) was injected prior to triton WR-1339. Lipids were extracted from plasma samples and ^3H-glycerol incorporated into triglycerides was measured as described above. For chylomicron production mice received ^3H-triolein in olive oil by gavage as described above directly after triton WR-1339 injection. Intestine-derived radioactivity in plasma was measured as described above. For manipulation of LPL function, THL (Roche, 12.5 mg ml^−1 DMSO) was diluted to 1.25 mg ml^−1 in 10% DMSO in PBS. Mice received 200 μL of either 0.25 mg THL, 50 U heparin (ratiopharm) or 10% DMSO in PBS (mock). After 1 min ^59Fe-SPIO- and ^3H-triolein-labeled TRL were injected and plasma clearance and organ uptake were determined as described above. For postprandial studies mice were i.p. injected with 0.25 mg THL or mock solution prior to gavage of 200 μL olive oil. Blood was collected at indicated time points and plasma triglyceride levels were determined.

[2] = target: T1, LPL; assay: Oral fat tolerance test in cold mice pre-treated with THL; format: in vivo; details: cold FVB mice; i.p. pre-treatment; versus mock-treated cold mice (no increase)
Method: as §1, with “For chylomicron production mice received ^3H-triolein in olive oil by gavage as described above directly after triton WR-1339 injection.” left out, “For manipulation of LPL function, THL (Roche, 12.5 mg ml^−1 DMSO) was diluted to 1.25 mg ml^−1 in 10% DMSO in PBS. Mice received 200 μL of either 0.25 mg THL, 50 U heparin (ratiopharm) or 10% DMSO in PBS (mock). After 1 min ^59Fe-SPIO- and ^3H-triolein-labeled TRL were injected and plasma clearance and organ uptake were determined as described above. For postprandial studies mice were i.p. injected with 0.25 mg THL or mock solution prior to gavage of 200 μL olive oil.” left out

[3] = target: T1, LPL; assay: MRI of SPIO-nanosome uptake after pre-injection of THL, heparin or chylomicrons; format: in vivo, mice; details: for uptake of SPIO-nanosomes into BAT, T2*-weighted MRI: cold-exposed FVB mice, pre-injection 1 min before SPIO-nanosomes
Method: Animals and diets. All experimental procedures were performed with approval from the animal care committees responsible for the University Medical Center Hamburg-Eppendorf. Animals were housed at 22° C. with ad libitum access to standard laboratory chow diet. We used male and female age-matched (16-22 weeks) FVB wildtype mice which were fasted 24 h or 4 h prior to the experiment. Fasting (22° C.) and cold exposure (4° C.) was performed in single cages for 24 h unless indicated otherwise.
For manipulation of LPL function, THL (Roche, 12.5 mg ml^−1 DMSO) was diluted to 1.25 mg ml^−1 in 10% DMSO in PBS. Mice received 200 μL of either 0.25 mg THL, 50 U heparin (ratiopharm) or PBS (mock). After 1 min, SPIO-nanosomes were injected, and plasma clearance and organ uptake were determined by dynamic MRI.
In vivo imaging studies. MRI was performed as described before^14. Briefly, all static and dynamic MRI measurements were performed with a clinical 3 Tesla MR scanner (Philips Medical Systems, Netherlands) equipped with a custom-made small animal solenoid coil. The dynamic measurements were based on a gradient-echo sequence (Supplementary table 3). The applied sequence is highly sensitive to susceptibility effects caused by local magnetic field inhomogeneities caused by SPIO-TRL. DICOM data were processed with ImageJ (http://rsbweb.nih.gov/ij/). SPIO-nanosomes were injected via a tail vein catheter.

[4] = system: BAT; assay: Intravital confocal imaging of fluorescent-labeled TRL in BAT; format: in vivo, mice
Method: In vivo imaging studies. MRI was performed as described before. Briefly, all static and dynamic MRI measurements were performed with a clinical 3 Tesla MR scanner (Philips Medical Systems, Netherlands) equipped with a custom-made small animal solenoid coil. The dynamic measurements were based on a gradient-echo sequence (Supplementary table 3). The applied sequence is highly sensitive to susceptibility effects caused by local magnetic field inhomogeneities caused by SPIO-TRL. DICOM data were processed with Image (http://rsbweb.nih.gov/ij/). For cryo electron microscopy, SPIO-TRL were intravenously injected into control or cold wild-type FVB mice. After 30 min mice were sacrificed, BAT biopsies were taken and processed for transmission electron microscopy (TEM) as described. Micrographs were obtained with a FBI Eagle 4k CCD camera and a Technal 20 TEM operated at 200 kV. For environmental scanning electron microscopy studies of BAT anaesthetized mice were perfused with PBS-Heparin as above and organs were fixed with 2.5% glutaraldehyde in PBS, washed, and postfixed for 30 min with 1% […] in PBS. For intravital microscopy interscapular BAT was dissected in anaesthetized mice and visualized by a confocal microscope equipped with a resonant scanner (Nikon AIR). QD-labeled TRL and fluorescent probes were injected via a tail vein catheter and 15 or 30 confocal images per second were recorded. The acquired data sets were aligned to reduce object movements due to mouse breathing and denoised with a Savitzky-Golay filter in Nikon NIS Elements AR 3.10. Labeling, animations and quicktime-export were done with Adobe After Effects CS4.

## CCCCCCCCCCC[C@@H](C[C@@H]1OC(=O)[C@H]1CCCCCC)OC(=O)[C@H](CC(C)C)NC=O [THL, Tetrahydrolipstatin]
[1]
  uptake of 3H-triolein into BAT: abolished
  uptake of 59Fe-SPIO into BAT: abolished
[1]; pre-injected before radiolabeled TRL
  uptake of TRL into the heart: inhibited
[2]
  plasma triglycerides after lipid gavage: significant postprandial triglyceride response
[3]; 24 h fasted FVB mice, inhibitor injected 1 min before SPIO-nanosomes
  uptake of SPIO-nanosomes into the heart (myocard), T2*-weighted MRI: not enhanced; also recorded: abolished
[3]
  uptake of SPIO-nanosomes into BAT, T2*-weighted MRI: not enhanced; also recorded: abolished

## heparin
[1]
  uptake of 3H-triolein into BAT: blocked
  uptake of 59Fe-SPIO into BAT: blocked
[3]
  uptake of SPIO-nanosomes into BAT, T2*-weighted MRI: blocked
[4]; heparin after initial TRL binding
  fluorescent-labeled TRL initially bound to the vascular wall: released
[4]; time-delayed heparin injection
  already internalized TRL particles: no influence
  binding of a second bolus of TRL: blocked
